pIC50: −log10 of the molar value. Counter-ions that a name gives are not always drawn. Like-named read-outs stand apart in the source and are kept apart here.

Data set [1] deals with PC-3 human prostate cancer cells. The experiment in a line: SRB cytotoxicity assay, PC-3. It is filed as cell-based. The conditions noted are these: 96 h, read-out: IC50 PC-3. The gist of the method:
(§1)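 Cells seeded at 1000–5000 per well by growth rate, then exposed 96 h to compound (0 to 100 μM) in three to five replicates. Cells TCA-fixed, SRB-stained, absorbance read at 540 nm; cell number expressed as percentage of untreated control.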

The test system of data set [2] is CaOv-3 human ovarian cancer cell line. Put plainly: SRB cytotoxicity assay, CaOv-3. It is filed as cell-based. The conditions noted are these: Table 8. How it is done:
(§2) For in vitro cytotoxicity screening, 1000 to 5000 cells were plated into each well of 96-well plates depending on growth rate, and exposed to different concentrations of a test compound for 96 h in three to five replicates. All the compounds were dissolved in dimethyl sulfoxide at 5 to 20 mM, and diluted to desired concentrations in complete culture medium. Cell numbers at the end of the drug treatment were measured by the SRB assay (Gududuru et al., “Synthesis and Biological Evaluation of Novel Cytotoxic Phospholipids for Prostate Cancer,” Bioorg. Med. Chem. Lett. 14:4919-4923 (2004); Rubinstein et at., “Comparison of in vitro Anticancer-Drug-Screening Data Generated with a Tetrazolium Assay Versus a Protein Assay Against a Diverse Panel of Human Tumor Cell Lines,” J. Naatl, Cancer Inst. 82:1113-1118 (1990), each of which is hereby incorporated by reference in its entirety). Briefly, the cells were fixed with 10% of trichloroacetic acid, stained with 0.4% SRB, and the absorbances at 540 nm was measured using a plate reader (DYNEX Technologies, Chantilly, Va.).
(§3) In vitro cytotoxicity assay was performed by the same sulforhodamine B (SRB) assay (described above). The compounds shown in Table 8 below where tested for activity against the breast cancer and ovarian cancer cell lines.

The subject of data set [3] is RH7777 rat hepatoma cells. The experiment in a line: SRB cytotoxicity assay, RH7777 control cell line. The conditions noted are these: for pIC50: read-out: IC50 RH7777. The data set is classed as cell-based. The gist of the method: as §1
The test system of data set [4] is DU-145 human prostate cancer cells. Put plainly: SRB cytotoxicity assay, DU-145. It is filed as cell-based. The conditions noted are these: 96 h. The essentials:
as §1

For data set [5], the system named is TSU-Pr1 human prostate cancer cells. Put plainly: SRB cytotoxicity assay, TSU-Pr1. The data set is classed as cell-based. Conditions: 96 h. The gist of the method: as §1
Data set [6] concerns PPC-1 human prostate cancer cells. The experiment in a line: SRB cytotoxicity assay, PPC-1. It is filed as cell-based. The essentials:
as §1

Data set [7] relates to SKOv-3 human ovarian cancer cell line. The experiment in a line: SRB cytotoxicity assay, SKOv-3. The conditions noted are these: Table 8. It is filed as cell-based. The protocol:
as §2, §3

For data set [8], the system named is OVCAR-3 human ovarian cancer cell line. Put plainly: SRB cytotoxicity assay, OVCAR-3. The data set is classed as cell-based. The conditions noted are these: Table 8. How it is done:
as §2, §3

Data set [9] deals with LNCaP human prostate cancer cells. Put plainly: SRB cytotoxicity assay, LNCaP. Conditions: 96 h; for pIC50: read-out: IC50 LNCaP. The data set is classed as cell-based. The gist of the method:
as §1

For data set [10], the system named is CHO cells (CHO-1, CHO-K1). The experiment in a line: SRB cytotoxicity assay, CHO. The data set is classed as cell-based. Conditions: Table 9; negative control cell line; 96 h. The protocol:
as §2, §3
Cells were exposed to a wide range of concentrations (0 to 100 μM) of the particular compound for 96 h in 96 well plates. Cells were fixed with 10% trichloroacetic acid, washed five times with water. The plates were air dried overnight and fixed cells were stained with SRB solution. The cellular protein-bound SRB was measured at 540 nm using a plate reader. Cell numbers at the end of the treatment were measured.
Cells were exposed to a wide range of concentrations (0 to 100 μM) of the particular compound for 96 h in 96-well plates. Cells were fixed with 10% trichloroacetic acid, washed five times with water. The plates were air dried overnight and fixed cells were stained with SRB solution. The cellular protein-bound SRB was measured at 540 nm using a plate reader. Cell numbers at the end of the treatment were calculated as a percentage of untreated control.

Data set [11] has as its system human breast cancer cell line (MCF-7). Put plainly: SRB cytotoxicity assay, MCF-7. It is filed as cell-based. The conditions noted are these: Homo sapiens, MCF7, read-out: IC50 MCF-7. The gist of the method:
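Cells plated at 1000–5000 per well by growth rate and exposed to compound (0 to 100 μM) for 96 h, three to five replicates. Cell number read by sulforhodamine B: TCA fixation, 0.4% SRB staining, absorbance at 540 nm.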

[12] abbreviates: Rattus norvegicus, RH7777, Table 3, control cell line, 96 h.
Where [13] appears, read: Homo sapiens, DU-145, read-out: IC50 DU-145, Table 3.
[14] abbreviates: Homo sapiens, TSU-Pr1, Table 3, read-out: IC50 TSU-Pr1.
The mark [15] stands for this setting: Table 9, negative control cell line, 96 h.
[16] abbreviates: Table 9, 96 h, read-out: IC50 PPC-1.
The mark [17] stands for this setting: Table 8, breast cancer cell line.
Setting [18] is: Rattus norvegicus, RH7777, Table 4, control cell line, 96 h.
Setting [19] is: Homo sapiens, DU-145, read-out: IC50 DU-145, Table 4.
Setting [20] is: Homo sapiens, TSU-Pr1, Table 4, read-out: IC50 TSU-Pr1.
Setting [21] is: Homo sapiens, PPC-1, Table 4, 96 h, read-out: IC50 PPC-1.
Where [22] appears, read: Rattus norvegicus, RH7777, Example 10 table, 0 to 100 μM for 96 h.
Where [23] appears, read: Homo sapiens, DU-145, read-out: IC50 DU-145, Example 10 table.
Where [24] appears, read: Homo sapiens, TSU-Pr1, Example 10 table, read-out: IC50 TSU-Pr1.
Setting [25] is: Homo sapiens, PPC-1, Example 10 table, 96 h, read-out: IC50 PPC-1.
The mark [26] stands for this setting: Homo sapiens, LNCaP, Example 10 table.

`Cl.O=C(O)[C@@H]1CSC(c2ccoc2)N1` (mixture of isomers) [Compound 12-HCI, (2RS, 4R)-2-Furan-3-yl-thiazolidine-4-carboxylic acid Hydrochloride]: the pIC50 in [1] (Homo sapiens, Table 3) is 5.09; in [2] (Homo sapiens, Caov-3), 5.11; in [3] (setting [12]), 4.98; in data set [4] (setting [13]), 5.18; in data set [5] (setting [14]), 5.38; in data set [6] (Homo sapiens, PPC-1, Table 3, 96 h, read-out: IC50 PPC-1), 5.96. The negative logarithm of the IC50 (pIC50) was 5.27 in data set [7] (Homo sapiens, SK-OV-3); 5.64 in data set [8] (Homo sapiens, OVCAR-3); 5.77 in [9] (Homo sapiens, LNCaP, Table 3). Moreover, the “Fold less selective against RH7777 cell line than compound 5” value in [3] is 3 fold.
`CCCCCCCCCCCCCCCCCCNC(=O)[C@@H]1CSC(c2ccc(OC)c(OC)c2)N1` (mixture of isomers) [Compound 16-HCI, (2RS, 4R)-2-(3,4-Dimethoxy-phenyl)-thiazolidine-4-carboxylic add octadecylamide Hydrochloride]: the pIC50 was 5.28 in [1] (Table 3); 5.26 in data set [2]; 4.99 in [3] (Table 3, control cell line, 96 h); 5.35 in data set [4] (read-out: IC50 DU-145, Table 3); 5.62 in [5] (Table 3, read-out: IC50 TSU-Pr1); 5.44 in [7]. In addition, the pIC50 in data set [8] is 5.92; in data set [9] (Table 3), 6.07.
Turning to `CCCCCCCCCCCCCCCCCCNC[C@@H](N)CO` [compound 317], the pIC50 in data set [1] (Table 9) was 5.59; in data set [3] (setting [15]), 5.54; in data set [4] (read-out: IC50 DU-145, Table 9), 5.39; in data set [5] (Table 9, read-out: IC50 TSU) it was 5.66; in [6] (setting [16]) it was 5.72; in data set [9] (Table 9) it was 5.29. This compound showed a pIC50 in data set [10] of 5.66.
For the compound `CCCCCCCCCCCCCCCCCCNC(=O)[C@@H]1CSC(c2cc(OC)c(OC)c(OC)c2)N1` (mixture of isomers) [Compound 17-HCI, (2RS, 4R)-2-(3,4,5-Trimethoxy-phenyl)-thiazolidine-4-carboxylic acid octadecylamide Hydrochloride], the pIC50 in data set [1] (Homo sapiens, Table 3) was 5.40; in data set [2] (Homo sapiens, Caov-3), 5.36; in data set [3] (setting [12]), 4.94; in [4] (setting [13]) it was 5.41; in [5] (setting [14]), 5.62; in data set [7] (Homo sapiens, SK-OV-3), 5.57. Moreover, the pIC50 is 5.85 in [8] (Homo sapiens, OVCAR-3) and 6.09 in data set [9] (Homo sapiens, LNCaP, Table 3).
As to `CCCCCCCCC=CCCCCCCCCNC(=O)C(N)CO` (centres unmarked) [compound 309], the pIC50 in [1] (Table 9) was 5.23; in [3] (setting [15]), 5.17; in data set [4] (read-out: IC50 DU-145, Table 9), 5.16; in data set [5] (Table 9, read-out: IC50 TSU), 5.26; in data set [6] (setting [16]), 5.29; in data set [9] (Table 9), 5.18. In data set [10], this compound showed a negative logarithm of the IC50 (pIC50) of 5.28.
As for `CCCCCCCCC=CCCCCCCCC(=O)NCCOP(=O)(O)O` [compound 320], the pIC50 in data set [1] (Table 9) was under 4.30; in data set [3] (setting [15]), under 4.30; in [4] (read-out: IC50 DU-145, Table 9) it was under 4.30; in data set [5] (Table 9, read-out: IC50 TSU), under 4.30; in [10] it was under 4.30. The “IC50 LNCaP” value in data set [9] (Table 9) is “Not Active”.
On to `CCCCCCCCNC(=O)C(CO)NC(=O)CCCCCCC` (centres unmarked) [315d], for which the pIC50 in data set [1] (Table 9) is 4.09; in [4] (read-out: IC50 DU-145, Table 9), under 4.00; in data set [5] (Table 9, read-out: IC50 TSU), 4.03; in data set [6] (setting [16]), 4.09; in data set [9] (Table 9) it was under 4.00; in data set [10], under 4.00.
Consider `CCCCCCCCCCCCCCCCCCNC(=O)[C@@H]1CSC(c2ccc(F)cc2)N1` (mixture of isomers) [Compound 19, (2RS, 4R)-2-(4-Fluoro-phenyl)-thiazolidine-4-carboxylic acid octadecylamide], for which the melting point amounted to 65 °C. In addition, the negative logarithm of the IC50 (pIC50) in data set [11] (setting [17]) is 5.06. For the same compound, the pIC50 in data set [2] (Homo sapiens, Caov-3) was 5.26. Further, the pIC50 in data set [3] (setting [18]) was 4.76. Further, the pIC50 in data set [4] (setting [19]) was 5.24. Besides, in [5] (setting [20]), the pIC50 is 5.27. Also, the negative-log IC50 (pIC50) in [6] (setting [21]) was 5.68. The pIC50 in data set [7] (Homo sapiens, SK-OV-3) was 5.38. Further, the negative-log IC50 (pIC50) in [8] (Homo sapiens, OVCAR-3) is 5.64. For the same compound, the pIC50 in data set [9] (Homo sapiens, LNCaP, Table 4) is 5.72.
Consider `CCCCCCCCCCCCCCCCCCNC(=O)[C@@H]1CSC(c2ccc(NC(C)=O)cc2)N1.Cl` (mixture of isomers) [Compound 18-HCI, (2RS, 4R)-2-(4-Acetylamino-phenyl)-thiazolidine-4-carboxylic acid octadecylamide Hydrochloride], for which the pIC50 in data set [1] (Homo sapiens, Table 4) is 5.25; in data set [2] (Homo sapiens, Caov-3) it was 5.31; in [3] (setting [18]) it was 4.68; in data set [4] (setting [19]) it was 5.51; in data set [5] (setting [20]), 6.03; in data set [6] (setting [21]), 6.26. Also, the pIC50 in data set [6] (Homo sapiens, PPC-1, read-out: IC50 in PPC-1 cells) is 6.26; in data set [7] (Homo sapiens, SK-OV-3), 5.59; in data set [8] (Homo sapiens, OVCAR-3), 5.70; in data set [9] (Homo sapiens, LNCaP, Table 4) it was 5.89. Also, the “Selectivity in PPC-1 cells compared to RH7777 cells” value in data set [6] worked out at 38 fold.
As to `CCCCCCCNC(=O)[C@@H]1CSC(c2ccccc2)N1` (mixture of isomers) [Compound 3-HCI, (2RS, 4R)-2-Phenylthiazolidine-4-carboxylic acid heptylamide Hydrochloride], the negative logarithm of the IC50 (pIC50) in data set [1] (Homo sapiens, Example 10 table) was 4.41; in [11] (Example 10 table, 96 h) it was 4.30; in [11] (setting [17]), 4.30; in data set [2] (Homo sapiens, Caov-3), 4.72; in data set [3] (setting [22]) it was 4.28; in data set [4] (setting [23]), 4.35. The pIC50 in data set [5] (setting [24]) was 4.55; in data set [6] (setting [25]) it was 4.46; in [7] (Homo sapiens, SK-OV-3) it was 4.32; in data set [8] (Homo sapiens, OVCAR-3), 4.47; in [9] (setting [26]) it was 4.91.
Take `CCCCCCCCCCCCCCCCCCNC(=O)[C@H]1CSC(c2ccccc2)N1` (stereo partly drawn) [5-HCI (S), (4S)-N-octadecyl-2-phenylthiazolidine-4-carboxamide]: the pIC50 was under 5.00 in data set [1] (Homo sapiens, Example 10 table); 5.13 in data set [11] (Example 10 table, 96 h); 5.13 in [11] (setting [17]); 4.74 in data set [2] (Homo sapiens, Caov-3); 4.72 in data set [3] (setting [22]); 5.15 in [4] (setting [23]). The pIC50 in data set [5] (setting [24]) is about 5.00; in data set [6] (setting [25]), 5.40; in data set [7] (Homo sapiens, SK-OV-3) it was 4.74; in [8] (Homo sapiens, OVCAR-3) it was 5.28; in [9] (setting [26]), 5.20.

The values above are taken from patent US20060014740A1 (priority 2003, published 2006).
